Assay results taken from article PMC3699648, “Replacement of the Human Topoisomerase Linker Domain with the Plasmodial Counterpart Renders the Enzyme Camptothecin Resistant” (PLoS ONE, 2013).

Target: T1, hTop1 (Homo sapiens, UniProt P11387)
T1 construct: gene TOP1; expressed in S. cerevisiae top1 null EKY3, anti-FLAG purified
T1 sequence (P11387 1-765): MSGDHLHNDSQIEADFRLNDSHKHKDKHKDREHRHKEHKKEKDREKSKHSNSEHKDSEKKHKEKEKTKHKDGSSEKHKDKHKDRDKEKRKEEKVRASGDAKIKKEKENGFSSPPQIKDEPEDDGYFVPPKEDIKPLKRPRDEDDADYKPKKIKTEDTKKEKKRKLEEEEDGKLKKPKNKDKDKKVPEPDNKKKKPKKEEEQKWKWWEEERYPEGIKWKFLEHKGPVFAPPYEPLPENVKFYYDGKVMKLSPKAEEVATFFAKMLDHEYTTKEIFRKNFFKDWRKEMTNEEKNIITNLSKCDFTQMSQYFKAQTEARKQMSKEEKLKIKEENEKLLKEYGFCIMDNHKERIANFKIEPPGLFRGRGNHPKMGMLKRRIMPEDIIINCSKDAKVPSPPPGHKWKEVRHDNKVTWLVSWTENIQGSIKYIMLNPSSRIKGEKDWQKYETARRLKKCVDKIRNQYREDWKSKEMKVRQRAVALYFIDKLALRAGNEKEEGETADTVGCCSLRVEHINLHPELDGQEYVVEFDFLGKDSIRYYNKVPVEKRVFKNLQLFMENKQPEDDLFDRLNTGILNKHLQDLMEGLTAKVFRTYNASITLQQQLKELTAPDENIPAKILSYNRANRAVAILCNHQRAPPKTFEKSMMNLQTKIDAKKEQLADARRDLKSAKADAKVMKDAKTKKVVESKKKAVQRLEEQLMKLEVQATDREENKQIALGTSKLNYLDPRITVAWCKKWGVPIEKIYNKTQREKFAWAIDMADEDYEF
Experiment: stabilisation of DNA cleavage complex (CL25/CP25, gel); also relaxation and religation assays
Type: biochemical
Conditions: 100 µM CPT, 20 nM duplex CL25/CP25, 1 min, 25 °C, pH 7.5, 5 mM MgCl2, 5 mM CaCl2, 150 mM KCl; binds covalent enzyme-DNA complex

Question: For CC[C@@]1(O)C(=O)OCc2c1cc1n(c2=O)Cc2cc3ccccc3nc2-1 [CPT, camptothecin], which “% cleavage complex at 100 μM” value is on record?
Answer: Its value is “In presence of CPT the hTop1 cleavage is strongly increased”.
